# Source: patent US12653815B2, “Luminally-acting N-(piperidin-4-yl)benzamide derivatives” (Takeda Pharmaceutical Company Limited, priority 2020, dated 2026)
# Biological target: T1, human 5-HT4(b) receptor (Homo sapiens, UniProt Q13639)
# T1 construct: overexpressing the full-length human 5-HT4(b) receptor with an N-terminal FLAG tag; FLAG (N); host or cells: CHO-K1
# Assay: 5-HT4(b) agonist assay (cAMP accumulation)
# Type: cell-based
# Conditions: CHO-K1 cells overexpressing full-length human 5-HT4(b) receptor; cAMP accumulation after 30 minutes at room temperature; 1 μM 5-HT as 100% activity
# Description: One may determine the activity of the compounds of Formula 1 using a variety of methods, including in vitro and in vivo methods. The ability of the example compounds to activate the 5-HT4(b) receptor may be determined using the following assay.
# Chinese hamster ovary (CHO-K1) cells overexpressing the full-length human 5-HT4(b) receptor with an N-terminal FLAG tag (Multispan Inc, Hayward, CA) are cultured per the manufacturer's protocol in 1:1 DMEM/F12 (Thermo Fisher, Waltham, MA) with 10% fetal bovine serum (GE Healthcare, Pittsburgh, PA) and 10 μg/mL puromycin (Thermo Fisher, Waltham, MA), and stored in frozen aliquots to be used as assay ready cells. On the day of the assay, cells are removed from frozen storage, washed two times in 1× Kreb's Ringer Buffer (Zenbio, Research Triangle Park, NC), and re-suspended to a concentration of 4×10^6 cells/mL in 1× Kreb's Ringer Buffer. Test compound (50 nL) in 100% DMSO is acoustically dispensed in low volume, white, 384-well polypropylene plates (Corning, Tewksbury, MA), followed by the addition of 4×10^4 cells per well in a total volume of 10 μL. Cells are incubated with test compound for 30 minutes at room temperature in the dark, and cAMP accumulation is measured using the Cisbio HiRange cAMP assay kit (Bedford, MA) per the manufacturer's protocol. Anti-cAMP antibody and d2-cAMP tracer reagents diluted in lysis/detection buffer are incubated in the dark for 1 hour, and results are measured on a Pherastar plate reader (BMG Labtech, Ortenberg, Germany). Data are normalized using 1 μM 5-HT (Sigma Aldrich, St. Louis, MO) as 100% activity, and DMSO alone as 0% activity.
# The ability of the example compounds to activate the 5-HT4(b) receptor was evaluated using the assay described in the Biological Activity section. Table 1, below, lists EC50 from the 5-HT4(b) agonist assay for each of the example compounds, where smaller EC50 values represent higher potency.
# T1 sequence (Q13639 whole entry): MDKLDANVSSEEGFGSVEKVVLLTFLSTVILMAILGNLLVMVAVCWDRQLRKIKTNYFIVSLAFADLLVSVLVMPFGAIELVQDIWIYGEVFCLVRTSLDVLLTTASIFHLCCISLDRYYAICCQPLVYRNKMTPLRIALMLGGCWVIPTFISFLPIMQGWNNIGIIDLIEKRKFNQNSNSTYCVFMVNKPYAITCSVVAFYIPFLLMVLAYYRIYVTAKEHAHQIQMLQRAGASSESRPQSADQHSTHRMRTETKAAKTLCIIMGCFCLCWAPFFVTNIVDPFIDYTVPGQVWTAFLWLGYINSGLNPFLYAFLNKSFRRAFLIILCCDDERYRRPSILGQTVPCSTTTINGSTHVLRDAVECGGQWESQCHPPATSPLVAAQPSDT
row,Structure (SMILES),EC50
1,"COc1cc(N)c(Cl)cc1C(=O)N[C@@H]1CCN(CC(C)CCCC(=O)NCCCCCCCC(=O)NC[C@H](O)[C@@H](O)[C@H](O)[C@H](O)CO)C[C@@H]1OC (stereo partly drawn) [Example 19, 4-amino-5-chloro-2-methoxy-N-((3S,4R)-3-methoxy-1-(2-methyloxo-6-((8-oxo-8-(((2S,3R,4R,5R)-2,3,4,5,6-pentahydroxyhexyl)amino)octyl)amino)hexyl)piperidin-4-yl)benzamide]",77 nM
2,"COc1cc(N)c(Cl)cc1C(=O)N[C@@H]1CCN(CCC(C)CCC(=O)NCCCCCCCC(=O)NC[C@H](O)[C@@H](O)[C@H](O)[C@H](O)CO)C[C@@H]1OC (stereo partly drawn) [Example 20, 4-amino-5-chloro-2-methoxy-N-((3S,4R)-3-methoxy-1-(3-methyl-6-oxo-6-((8-oxo-8-(((2S,3R,4R,5R)-2,3,4,5,6-pentahydroxyhexyl)amino)octyl)amino)hexyl)piperidin-4-yl)benzamide]",57.6 nM
3,"COc1cc(N)c(Cl)cc1C(=O)N[C@@H]1CCN(CCCC(C)CC(=O)NCCCCCCCC(=O)NC[C@H](O)[C@@H](O)[C@H](O)[C@H](O)CO)C[C@@H]1OC (stereo partly drawn) [Example 21, 4-amino-5-chloro-2-methoxy-N-((3S,4R)-3-methoxy-1-(4-methyl-6-oxo-6-((8-oxo-8-(((2S,3R,4R,5R)-2,3,4,5,6-pentahydroxyhexyl)amino)octyl)amino)hexyl)piperidin-4-yl)benzamide]",27.6 nM
4,"COc1cc(N)c(Cl)cc1C(=O)N[C@@H]1CCN(CCCCCC(=O)NCCCCCCCC(=O)NCCS(=O)(=O)O)C[C@@H]1OC [Example 23, 2-(8-(6-((3S,4R)-4-(4-amino-5-chloro-2-methoxybenzamido)-3-methoxypiperidin-1-yl)hexanamido)octanamido)ethane-1-sulfonic acid]",56.5 nM
5,"COc1cc(N)c(Cl)cc1C(=O)N[C@@H]1CCN(CCCCCC(=O)NCCCCCCCC(=O)N[C@H]2C[C@](O)(CO)[C@@H](O)[C@H](O)[C@H]2O)C[C@@H]1OC [Example 24, 4-amino-5-chloro-2-methoxy-N-((3S,4R)-3-methoxy-1-(6-oxo ((8-oxo-8-(((1S,2S,3R,4S,5S)-2,3,4,5-tetrahydroxy (hydroxymethyl)cyclohexyl)amino)octyl)amino)hexyl)piperidin-4-yl)benzamide]",28.7 nM
6,"COc1cc(N)c(Cl)cc1C(=O)N[C@@H]1CCN(CCCCCC(=O)NCCCCCCCC(=O)NCCP(=O)(O)O)C[C@@H]1OC [Example 25, (2-(8-(6-((3S,4R)-4-(4-amino-5-chloro-2-methoxybenzamido)-3-methoxypiperidin-1-yl)hexanamido)octanamido)ethyl)phosphonic acid]",115 nM
7,"COc1cc(N)c(Cl)cc1C(=O)N[C@@H]1CCN(CCCCCC(=O)NCCCCCCCC(=O)N(CCP(=O)(O)O)C[C@H](O)[C@@H](O)[C@H](O)[C@H](O)CO)C[C@@H]1OC [Example 26, (2-(8-(6-((3S,4R)-4-(4-amino-5-chloro-2-methoxybenzamido)-3-methoxypiperidin-1-yl)hexanamido)-N-((2S,3R,4R,5R)-2,3,4,5,6-pentahydroxyhexyl)octanamido)ethyl)phosphonic acid]",131 nM
8,"COc1cc(N)c(Cl)cc1C(=O)N[C@@H]1CCN(CCCCCC(=O)NCCCCCCCC(=O)N(CCCN(C)C)CCS(=O)(=O)O)C[C@@H]1OC [Example 27, 2-(8-(6-((3S,4R)-4-(4-amino-5-chloro-2-methoxybenzamido)methoxypiperidin-1-yl)hexanamido)-N-(3-(dimethylamino)propyl)octanamido)ethane-1-sulfonic acid]",30.3 nM
9,"Nc1c(Cl)cc(C(=O)NC2CCN(CCCCCC(=O)NCCCCCCCC(=O)NC[C@H](O)[C@@H](O)[C@H](O)[C@H](O)CO)CC2)c2c1CCO2 [Example 32, 4-amino-5-chloro-N-(1-(6-oxo-6-((8-oxo-8-(((2S,3R,4R,5R)-2,3,4,5,6-pentahydroxyhexyl)amino)octyl)amino)hexyl)piperidin-4-yl)-2,3-dihydrobenzofuran-7-carboxamide]",23 nM

# These reach a lower EC50. Values come first.
row,EC50,Structure (SMILES)
1,19.1 nM,"COc1cc(N)c(Cl)cc1C(=O)N[C@@H]1CCN(CCCCCC(=O)NCCCCCCCC(=O)N(CCO)C[C@H](O)[C@@H](O)[C@H](O)[C@H](O)CO)C[C@@H]1OC [Example 22, 4-amino-5-chloro-N-((3 S,4R)-1-(6-((8-((2-hydroxyethyl)((2S,3R,4R,5R)-2,3,4,5,6-pentahydroxyhexyl)amino)-8-oxooctyl)amino)-6-oxohexyl)-3-methoxypiperidin-4-yl)-2-methoxybenzamide]"
2,15.3 nM,"Nc1c(Cl)cc(C(=O)NC2CCN(CCCCCC(=O)NCCCC(=O)NC[C@H](O)[C@@H](O)[C@H](O)[C@H](O)CO)CC2)c2c1CCO2 [Example 34, 4-amino-5-chloro-N-(1-(6-oxo-6-((4-oxo-4-(((2S,3R,4R,5R)-2,3,4,5,6-pentahydroxyhexyl)amino)butyl)amino)hexyl)piperidin-4-yl)-2,3-dihydrobenzofuran-7-carboxamide]"
3,12.6 nM,"Nc1c(Cl)cc(C(=O)NC2CCN(CCCCCC(=O)NCCCCCC(=O)NC[C@H](O)[C@@H](O)[C@H](O)[C@H](O)CO)CC2)c2c1CCO2 [Example 33, 4-amino-5-chloro-N-(1-(6-oxo-6-((6-oxo-6-(((2S,3R,4R,5R)-2,3,4,5,6-pentahydroxyhexyl)amino)hexyl)amino)hexyl)piperidin-4-yl)-2,3-dihydrobenzofuran-7-carboxamide]"
4,6.1 nM,"Nc1c(Cl)cc(C(=O)NC2CCN(CCCCCC(=O)NC3CCN(CCCCCC(=O)NC[C@H](O)[C@@H](O)[C@H](O)[C@H](O)CO)CC3)CC2)c2c1CCO2 [Example 31, 4-amino-5-chloro-N-(1-(6-oxo-6-((1-(6-oxo-6-(((2S,3R,4R,5R)-2,3,4,5,6-pentahydroxyhexyl)amino)hexyl)piperidin-4-yl)amino)hexyl)piperidin-4-yl)-2,3-dihydrobenzofuran-7-carboxamide]"
5,4.4 nM,"Nc1c(Cl)cc(C(=O)NC2CCN(CCCCCC(=O)N[C@@H]3CCCN(CCCCCC(=O)NC[C@H](O)[C@@H](O)[C@H](O)[C@H](O)CO)C3)CC2)c2c1CCO2 [Example 29, 4-amino-5-chloro-N-(1-(6-oxo-6-(((R)-1-(6-oxo-6-(((2S,3R,4R,5R)-2,3,4,5,6-pentahydroxyhexyl)amino)hexyl)piperidin-3-yl)amino)hexyl)piperidin-4-yl)-2,3-dihydrobenzofuran-7-carboxamide]"
6,3.8 nM,"Nc1c(Cl)cc(C(=O)NC2CCN(CCCCCC(=O)N[C@@H]3CCCN(CCCCCCCC(=O)NC[C@H](O)[C@@H](O)[C@H](O)[C@H](O)CO)C3)CC2)c2c1CCO2 [Example 28, 4-amino-5-chloro-N-(1-(6-oxo-6-(((R)-1-(8-oxo-8-(((2S,3R,4R,5R)-2,3,4,5,6-pentahydroxyhexyl)amino)octyl)piperidin-3-yl)amino)hexyl)piperidin-4-yl)-2,3-dihydrobenzofuran-7-carboxamide]"
7,3.7 nM,"Nc1c(Cl)cc(C(=O)NC2CCN(CCCCCC(=O)NC3CCN(CCCCCCCC(=O)NC[C@H](O)[C@@H](O)[C@H](O)[C@H](O)CO)CC3)CC2)c2c1CCO2 [Example 30, 4-amino-5-chloro-N-(1-(6-oxo-6-((1-(8-oxo-8-(((2S,3R,4R,5R)-2,3,4,5,6-pentahydroxyhexyl)amino)octyl)piperidin-4-yl)amino)hexyl)piperidin-4-yl)-2,3-dihydrobenzofuran-7-carboxamide]"
8,2.6 nM,"Nc1c(Cl)cc(C(=O)NCC2CCN(CC3CCN(CCCCCCCCC(=O)NC[C@H](O)[C@@H](O)[C@H](O)[C@H](O)CO)CC3)CC2)c2c1CCO2 [Example 35, 4-amino-5-chloro-N-((1-((1-(9-oxo-9-(((2S,3R,4R,5R)-2,3,4,5,6-pentahydroxyhexyl)amino)nonyl)piperidin-4-yl)methyl)piperidin-4-yl)methyl)-2,3-dihydrobenzofuran-7-carboxamide]"
9,2.5 nM,"Nc1c(Cl)cc(C(=O)NCC2CCN(CC3CCN(CCCCCCCCCCC(=O)NC[C@H](O)[C@@H](O)[C@H](O)[C@H](O)CO)CC3)CC2)c2c1CCO2 [Example 36, 4-amino-5-chloro-N-((1-((1-(11-oxo-11-(((2S,3R,4R,5R)-2,3,4,5,6-pentahydroxyhexyl)amino)undecyl)piperidin-4-yl)methyl)piperidin-4-yl)methyl)-2,3-dihydrobenzofuran-7-carboxamide]"
10,2 nM,"Nc1c(Cl)cc(C(=O)NCC2CCN(CC3CCN(CCCCCCC(=O)NC[C@H](O)[C@@H](O)[C@H](O)[C@H](O)CO)CC3)CC2)c2c1CCO2 [Example 37, 4-amino-5-chloro-N-((1-((1-(7-oxo-7-(((2S,3R,4R,5R)-2,3,4,5,6-pentahydroxyhexyl)amino)heptyl)piperidin-4-yl)methyl)piperidin-4-yl)methyl)-2,3-dihydrobenzofuran-7-carboxamide]"
